Results: patent US8232313B2 (Georgia Health Sciences University, priority 2003, dated 2012)
“Also recorded” adds a separate entry of the source.

Experiments:
[1] = biological target: indoleamine 2,3-dioxygenase (IDO) (Homo sapiens, UniProt P14902); assay: Allogeneic mixed-leukocyte reaction (MLR) with IDO-expressing human DCs, T cell proliferation by thymidine incorporation; conditions: 250 uM in culture medium
Experimental: After five days, proliferation was measured by four hour thymidine incorporation assay. “V”-bottom culture wells (Nunc) were used in MLR assays to maximize cell-cell contact.
DCs were used as stimulators in allogeneic mixed-leukocyte reactions (MLRs), with allogeneic lymphocytes as responder cells.

IDO [2] = biological target: IDO (Mus musculus, UniProt P28776); assay: MLR with sorted tumor-draining LN cells (pDCs) as stimulators and BM3 responder T cells; conditions: 250 uM
Experimental: T cell activation in MLR. BM3 responder T cells were prepared from spleen by nylon-wool enrichment. Stimulators (sorted DCs or unfractionated TDLN) were mixed with 1×10^5 BM3 responder cells in 200 ul IMDM at the ratios shown in each figure. After 3 days, proliferation was measured by 4-hour thymidine incorporation assay.
MLRs were thus “two-way” reactions. However, the small number of sorted DCs used as stimulators contributed negligible proliferation compared to the large population of TCR-transgenic responder cells. Since the relevant readout was dominant suppression, the two-way MLR design presented no problem in interpretation.
Pooled draining LN cells (4 nodes) were stained and fractionated by 4-color MoFlo cell sorting for the two populations shown in the schematic of FIG. 5B. All other cells were collected in a third fraction. Each fraction was then used as stimulators in MLRs, using 50,000 BM3 T cells as responders. The number of stimulators used in each MLR was adjusted to be the same as would have been present in 50,000 cells of the original LN preparation, based on the measured percentage of each sorted fraction. Thus, 500 cells of the sorted B220^+ CD11c^+ fraction were added per well, and 1500 cells of the CD25^+ CD4^+ fraction, while 48,000 cells of the “all other” fraction were used.

[3] = Pilot tissue biodistribution of D and L isomers after DL racemic infusion; assay type: in vivo, Mice; conditions: DL racemic 10 mg/day, 72 hour infusion
Excerpt: The results noted with spleen are particularly relevant because it is a lymphoid organ, and thus likely to be similar to tumor-draining lymph nodes.

[4] = Comparative plasma pharmacokinetics of the stereoisomers of 1-MT; assay type: in vivo, mice; conditions: for time to peak plasma concentrations: after PO administration, 50 mg/kg
Experimental: Comparative pharmacokinetic studies were initiated to characterize the in vivo disposition of the stereoisomers of 1-MT when administered by different routes, to determine the oral bioavailability, and to define the plasma concentrations associated with effective dosing regimens. Studies were conducted in conventional mice after IV, PO and SC doses of 50 mg/kg, and IP doses of 25 mg/kg, 50 mg/kg, and 100 mg/kg. In addition, plasma concentrations of 1-MT were determined in nude mice with implanted timed-release pellets designed to release the DL isomer for 7 days, and the D isomer for 14 days.

B16F10 melanomas = assay: Established B16F10 melanoma in mice, 1MT with radiation or cyclophosphamide; assay type: in vivo, mouse
Experimental: FIGS. 11A-11D. Administration of 1-MT enhances immune-mediated host anti-tumor effect when administered with radiation or cyclophosphamide. Mice were injected subcutaneously (SQ) with 4×10^4 B16F10 cells. […] Control mice received vehicle pellets without drug.
Not unexpected, given that the tumor had already been allowed to create tolerance in the host.

IDO [5] = assay: Recall MLR of LN cells from recipients of TDLN DCs, 1MT added to the MLR; conditions: responders from recipients of TDLN DCs
Experimental: Inguinal LN cells from recipient mice were assayed for functional responsiveness using MLRs stimulated by irradiated C57BL/6 (H-2K^b-positive) splenocytes.

[6] = test system: Lewis Lung carcinoma (LLC); conditions: administration of 1-MT; cited from earlier work

Chain of IDO (Mus musculus, UniProt P28776) (P28776 whole entry, the tested form may be a part): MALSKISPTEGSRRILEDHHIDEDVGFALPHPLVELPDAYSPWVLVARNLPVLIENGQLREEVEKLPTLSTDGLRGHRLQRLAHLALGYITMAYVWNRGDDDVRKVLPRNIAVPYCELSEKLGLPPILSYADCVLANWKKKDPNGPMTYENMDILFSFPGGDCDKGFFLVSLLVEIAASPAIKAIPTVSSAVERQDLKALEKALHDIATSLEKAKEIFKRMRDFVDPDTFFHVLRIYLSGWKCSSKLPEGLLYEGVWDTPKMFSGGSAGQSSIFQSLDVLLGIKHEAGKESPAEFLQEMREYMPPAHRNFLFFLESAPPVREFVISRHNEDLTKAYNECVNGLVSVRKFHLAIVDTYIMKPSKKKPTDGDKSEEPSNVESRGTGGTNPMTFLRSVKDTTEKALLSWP
Chain of indoleamine 2,3-dioxygenase (IDO) (P14902 whole entry): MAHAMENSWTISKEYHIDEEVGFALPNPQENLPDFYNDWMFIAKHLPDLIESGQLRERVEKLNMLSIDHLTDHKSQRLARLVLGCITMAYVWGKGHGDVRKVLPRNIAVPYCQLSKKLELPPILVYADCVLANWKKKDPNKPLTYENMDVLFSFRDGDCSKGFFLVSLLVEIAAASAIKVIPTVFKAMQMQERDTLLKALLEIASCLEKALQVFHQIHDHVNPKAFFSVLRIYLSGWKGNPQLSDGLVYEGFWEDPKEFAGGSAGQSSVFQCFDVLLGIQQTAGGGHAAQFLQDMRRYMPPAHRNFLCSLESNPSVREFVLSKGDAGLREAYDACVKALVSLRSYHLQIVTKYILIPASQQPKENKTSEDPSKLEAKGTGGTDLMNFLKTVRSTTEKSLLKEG

Structure (SMILES): N[C@@H](Cc1c[nH]c2ccccc12)C(=O)O [L-tryptophan]
- DC-mediated inhibition of T cell proliferation on addition of supra-physiologic tryptophan [1]: completely reversed
- suppression by pDCs with excess L-tryptophan (IDO [2]; 10x): abrogated; also recorded: abrogates suppression
- effect of 10x L-tryptophan with pDCs from IDO-knockout hosts (IDO [2]; IDO-KO): no effect

Structure (SMILES): Cn1cc(C[C@@H](N)C(=O)O)c2ccccc21 [1-methyl-D-tryptophan]
- distribution into muscle, D and L isomers [3]: equivalent distribution
- distribution into spleen, D and L isomers [3]: equivalent distribution
- level in brain, D versus L isomer [3]: lower levels
- level in plasma, D versus L isomer [3]: lower levels
- accumulation in liver, D versus L isomer ([3]; SQ pellets, initial results): at least equal, and possibly preferential, accumulation
- time to peak plasma concentrations [4]: 2 h
- apparent volume of distribution ([4]; relative to L isomer): relatively greater
- effect of combination with radiation versus radiation alone, replicated studies (B16F10 melanomas; replicate of FIG. 11A design): enhanced effect over radiation alone

Structure (SMILES): Cn1cc(C[C@H](N)C(=O)O)c2ccccc21 (racemic) [1MT, 1-methyl-tryptophan]
- effect of 1MT on suppression in recall MLRs (IDO [5]): no effect; also recorded: not restored
- tumor outgrowth [6]: significantly delayed
- tumor growth, 1MT with total-body radiation (B16F10 melanomas; DL racemic 20 mg/day plus 500 cGy single dose): significantly reduce tumor growth
- tumor growth, 1MT with cyclophosphamide (B16F10 melanomas; DL racemic 20 mg/day plus cyclophosphamide 150 mg/kg x 1 dose): significantly reduce tumor growth
- effect of 1MT alone on established tumor (B16F10 melanomas; DL racemic form, 20 mg per mouse per day, SQ pellets, from day 7): no effect
- effect of 1MT over cyclophosphamide alone in RAG1-knockout hosts (B16F10 melanomas; immunodeficient (RAG1-knockout) hosts): no enhancing effect
- effect of 1MT alone, replicated radiation studies (B16F10 melanomas; replicate of FIG. 11A design): no effect

Structure (SMILES): Cn1cc(C[C@H](N)C(=O)O)c2ccccc21 [L 1-MT, reference compound]
- time to peak plasma concentrations [4]: 2 h
